# Test results published in US20100016274A1, “BETA-LACTAM CANNABINOID RECEPTOR MODULATORS” (priority 2006, published 2010).
# Target: T1, cannabinoid receptor-1 (CB1), CB1R-containing cell membrane (Homo sapiens, UniProt P21554)
# T1 construct: purchased Applied Cell Sciences Inc, Rockville, Md
# Assay: biochemical
# Type: binding
# Conditions: IC50, displacement of 3H-CP55940 (1 nM) on CB1 receptors
# Description: Method A using cell membranes. A compound is dissolved in DMSO and diluted to 1 M as a stock solution. […] A CB1R-containing cell membrane (Applied Cell Sciences Inc, Rockville, Md.) is diluted with binding buffer to a protein concentration of 28 μg/ml.
# The mixture is incubated for 90 min at room temperature, then filtered through Whatman glass fiber C disc filter in a vacuum manifold. The filter is washed three times each with 2.5 ml cold wash buffer (binding buffer with only 2.5 mg/ml BSA). The vacuum-dried filter is transferred to a scintillation vial, treated with 3 ml Eco-Scint, and the radioactivity is read on a Beckman LS6500 scintillation counter from which an IC50 value is calculated. The corresponding Ki values are obtained from serial dilutions according to this method, and calculated through the use of a non-linear regression program (Graphpad Inc, San Diego, Calif.).
# T1 sequence (P21554 whole entry, species assumed): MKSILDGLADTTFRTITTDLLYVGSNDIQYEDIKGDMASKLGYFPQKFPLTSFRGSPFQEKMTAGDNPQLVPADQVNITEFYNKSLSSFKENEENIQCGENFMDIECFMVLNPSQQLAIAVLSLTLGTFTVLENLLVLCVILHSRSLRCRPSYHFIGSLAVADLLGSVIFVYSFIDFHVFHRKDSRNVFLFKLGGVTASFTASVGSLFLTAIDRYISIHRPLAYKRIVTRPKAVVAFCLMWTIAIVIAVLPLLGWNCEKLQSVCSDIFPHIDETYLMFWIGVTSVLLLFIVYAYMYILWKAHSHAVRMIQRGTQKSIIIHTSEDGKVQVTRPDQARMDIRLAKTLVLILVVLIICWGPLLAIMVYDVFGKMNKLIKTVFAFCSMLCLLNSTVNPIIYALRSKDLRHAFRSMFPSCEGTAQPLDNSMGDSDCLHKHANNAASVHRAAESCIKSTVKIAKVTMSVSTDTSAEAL
row,Molecule,IC50
1,CCCN1CCN(C(=O)CC[C@@H](C(=O)NCc2cccc(C(F)(F)F)c2)N2C(=O)[C@@H](N3C(=O)OC[C@@H]3c3ccccc3)[C@H]2/C=C/c2ccccc2)CC1 [Example 35AJ],< 10 µM
2,CC(C)NC(=O)CN1CCN(C(=O)CC[C@@H](C(=O)NCc2cccc(C(F)(F)F)c2)N2C(=O)[C@@H](N3C(=O)OC[C@@H]3c3ccccc3)[C@H]2/C=C/c2ccccc2)CC1 [Example 35AK],< 10 µM
3,O=C(CC[C@@H](C(=O)N1CCN(C2CCCCC2)CC1)N1C(=O)[C@@H](N2C(=O)OC[C@@H]2c2ccccc2)[C@H]1/C=C/c1ccccc1)NCC1CCCCC1 [Example 37AA],< 10 µM
4,O=C(CC[C@@H](C(=O)N1CCN(C2CCCCC2)CC1)N1C(=O)[C@@H](N2C(=O)OC[C@@H]2c2ccccc2)[C@H]1/C=C/c1ccccc1)NCCOc1ccccc1 [Example 37AB],< 10 µM
5,O=C(CC[C@@H](C(=O)N1CCN(C2CCCCC2)CC1)N1C(=O)[C@@H](N2C(=O)OC[C@@H]2c2ccccc2)[C@H]1/C=C/c1ccccc1)NCc1ccc2c(c1)OCO2 [Example 37AC],< 10 µM
6,O=C(CC[C@@H](C(=O)N1CCN(C2CCCCC2)CC1)N1C(=O)[C@@H](N2C(=O)OC[C@@H]2c2ccccc2)[C@H]1/C=C/c1ccccc1)N1CCC(Cc2ccccc2)CC1 [Example 37AD],< 10 µM
7,O=C(CC[C@@H](C(=O)N1CCN(C2CCCCC2)CC1)N1C(=O)[C@@H](N2C(=O)OC[C@@H]2c2ccccc2)[C@H]1/C=C/c1ccccc1)Nc1cccc(C(F)(F)F)c1 [Example 37AE],< 10 µM
8,O=C(CC[C@@H](C(=O)N1CCN(C2CCCCC2)CC1)N1C(=O)[C@@H](N2C(=O)OC[C@@H]2c2ccccc2)[C@H]1/C=C/c1ccccc1)NCc1cccc(OC(F)(F)F)c1 [Example 37L],< 10 µM
9,O=C(CC[C@@H](C(=O)N1CCN(C2CCCCC2)CC1)N1C(=O)[C@@H](N2C(=O)OC[C@@H]2c2ccccc2)[C@H]1/C=C/c1ccccc1)NCc1ccc(Cl)c(Cl)c1 [Example 37M],< 10 µM
10,O=C(CC[C@@H](C(=O)N1CCN(C2CCCCC2)CC1)N1C(=O)[C@@H](N2C(=O)OC[C@@H]2c2ccccc2)[C@H]1/C=C/c1ccccc1)NCc1cc(Cl)cc(Cl)c1 [Example 37N],< 10 µM
11,O=C(CC[C@@H](C(=O)N1CCN(C2CCCCC2)CC1)N1C(=O)[C@@H](N2C(=O)OC[C@@H]2c2ccccc2)[C@H]1/C=C/c1ccccc1)NCc1cc(Cl)ccc1Cl [Example 37O],< 10 µM
12,O=C(CC[C@@H](C(=O)N1CCN(C2CCCCC2)CC1)N1C(=O)[C@@H](N2C(=O)OC[C@@H]2c2ccccc2)[C@H]1/C=C/c1ccccc1)NCc1cccc(Cl)c1Cl [Example 37P],< 10 µM
13,O=C(CC[C@@H](C(=O)N1CCN(C2CCCCC2)CC1)N1C(=O)[C@@H](N2C(=O)OC[C@@H]2c2ccccc2)[C@H]1/C=C/c1ccccc1)NCc1cc(C(F)(F)F)ccc1F [Example 37Q],< 10 µM
14,O=C(CC[C@@H](C(=O)N1CCN(C2CCCCC2)CC1)N1C(=O)[C@@H](N2C(=O)OC[C@@H]2c2ccccc2)[C@H]1/C=C/c1ccccc1)NCc1ccc(F)c(C(F)(F)F)c1 [Example 37R],< 10 µM
15,O=C(CC[C@@H](C(=O)N1CCN(C2CCCCC2)CC1)N1C(=O)[C@@H](N2C(=O)OC[C@@H]2c2ccccc2)[C@H]1/C=C/c1ccccc1)NCc1cccc(C(F)(F)F)c1F [Example 37T],< 10 µM
16,O=C(CC[C@@H](C(=O)N1CCN(C2CCCCC2)CC1)N1C(=O)[C@@H](N2C(=O)OC[C@@H]2c2ccccc2)[C@H]1/C=C/c1ccccc1)NC1CCc2ccccc21 (stereo partly drawn) [Example 37V],< 10 µM
17,O=C(CC[C@@H](C(=O)N1CCN(C2CCCCC2)CC1)N1C(=O)[C@@H](N2C(=O)OC[C@@H]2c2ccccc2)[C@H]1/C=C/c1ccccc1)N1CCC(n2c(O)nc3ccccc32)CC1 [Example 37W],< 10 µM
18,O=C(NCCc1ccccc1)[C@H](CCC(=O)N1CCN(C2CCCCC2)CC1)N1C(=O)[C@@H](N2C(=O)OC[C@@H]2c2ccccc2)[C@H]1/C=C/c1ccccc1 [Example 38AC],< 10 µM
19,COc1cc(CNC(=O)[C@H](CCC(=O)N2CCN(C3CCCCC3)CC2)N2C(=O)[C@@H](N3C(=O)OC[C@@H]3c3ccccc3)[C@H]2/C=C/c2ccccc2)cc(OC)c1 [Example 38AD],< 10 µM

row,Molecule,IC50
1,COc1cccc([C@@H](C)NC(=O)[C@H](CCC(=O)N2CCN(C3CCCCC3)CC2)N2C(=O)[C@@H](N3C(=O)OC[C@@H]3c3ccccc3)[C@H]2/C=C/c2ccccc2)c1 [Example 38AE],< 10 µM
2,COc1cccc(C(C)NC(=O)C(CCC(=O)N2CCN(C3CCCCC3)CC2)N2C(=O)C(N3C(=O)OCC3c3ccccc3)C2C=Cc2ccccc2)c1 (stereo not drawn) [Example 38AF],< 10 µM
3,CC(C)(NC(=O)[C@H](CCC(=O)N1CCN(C2CCCCC2)CC1)N1C(=O)[C@@H](N2C(=O)OC[C@@H]2c2ccccc2)[C@H]1/C=C/c1ccccc1)c1ccccc1 [Example 38AG],< 10 µM
4,O=C(NCc1ccc(C(F)(F)F)cc1)[C@H](CCC(=O)N1CCN(C2CCCCC2)CC1)N1C(=O)[C@@H](N2C(=O)OC[C@@H]2c2ccccc2)[C@H]1/C=C/c1ccccc1 [Example 38BH],< 10 µM
5,O=C(NCc1cccc2ccccc12)[C@H](CCC(=O)N1CCN(C2CCCCC2)CC1)N1C(=O)[C@@H](N2C(=O)OC[C@@H]2c2ccccc2)[C@H]1/C=C/c1ccccc1 [Example 38BL],< 10 µM
6,O=C(CC[C@@H](C(=O)N1CCc2ccccc2C1)N1C(=O)[C@@H](N2C(=O)OC[C@@H]2c2ccccc2)[C@H]1/C=C/c1ccccc1)N1CCN(C2CCCCC2)CC1 [Example 38BM],< 10 µM
7,O=C(NCc1ccccc1C(F)(F)F)[C@H](CCC(=O)N1CCN(C2CCCCC2)CC1)N1C(=O)[C@@H](N2C(=O)OC[C@@H]2c2ccccc2)[C@H]1/C=C/c1ccccc1 [Example 38K],~10 µM
8,COc1cccc(CNC(=O)[C@H](CCC(=O)N2CCN(C3CCCCC3)CC2)N2C(=O)[C@@H](N3C(=O)OC[C@@H]3c3ccccc3)[C@H]2/C=C/c2ccccc2)c1 [Example 38L],~10 µM
9,O=C(NCc1cccc(F)c1)[C@H](CCC(=O)N1CCN(C2CCCCC2)CC1)N1C(=O)[C@@H](N2C(=O)OC[C@@H]2c2ccccc2)[C@H]1/C=C/c1ccccc1 [Example 38M],~10 µM
10,O=C(NCc1cc(F)cc(F)c1)[C@H](CCC(=O)N1CCN(C2CCCCC2)CC1)N1C(=O)[C@@H](N2C(=O)OC[C@@H]2c2ccccc2)[C@H]1/C=C/c1ccccc1 [Example 38N],~10 µM
11,O=C(NCc1ccc(F)c(Cl)c1)[C@H](CCC(=O)N1CCN(C2CCCCC2)CC1)N1C(=O)[C@@H](N2C(=O)OC[C@@H]2c2ccccc2)[C@H]1/C=C/c1ccccc1 [Example 38O],< 10 µM
12,Cc1cccc(CNC(=O)[C@H](CCC(=O)N2CCN(C3CCCCC3)CC2)N2C(=O)[C@@H](N3C(=O)OC[C@@H]3c3ccccc3)[C@H]2/C=C/c2ccccc2)c1 [Example 38V],< 10 µM
13,"O=C(C[C@@H](C(=O)NCc1cccc(C(F)(F)F)c1)N1C(=O)[C@@H](N2C(=O)OC[C@@H]2c2ccccc2)[C@H]1CCc1ccccc1)NC1CCN(Cc2ccccc2)CC1 [Example 53A, 2(S)-[[(1-Benzylpiperidin-4-yl)amino]carbonylmethyl]-2-[3 (S)-(4(S)-phenyloxazolidin-2-on-3-yl)-4(R)-(2-phenyleth-1-yl)azetidin-2-on-1-yl]acetic acid N-(3-trifluoromethylbenzyl)amide]",< 10 µM
14,"O=C(CN1C(=O)C(c2ccccc2)C1C=Cc1ccccc1)OCc1ccccc1 (stereo not drawn) [Example 70A, Benzyl 2-[3(S*)-2-Phenyl)-4(R*)-(2-styryl)azetidin-2-on-1-yl]acetate]",< 10 µM
15,O=C(NC1CCCc2ccccc21)[C@H](CCC(=O)N1CCN(C2CCCCC2)CC1)N1C(=O)[C@@H](N2C(=O)OC[C@@H]2c2ccccc2)[C@H]1/C=C/c1cccs1 (stereo partly drawn) [Example 72C],~10 µM
16,O=C(N[C@@H]1CCCc2ccccc21)[C@H](CCC(=O)N1CCN(C2CCCCCC2)CC1)N1C(=O)[C@@H](N2C(=O)OC[C@@H]2c2ccccc2)[C@H]1/C=C/c1ccccc1 [Example 73A],< 10 µM
17,O=C(NCc1cccc(C(F)(F)F)c1)[C@H](CCC(=O)N1CCN(C2CCCCC2)CC1)N1C(=O)[C@H](N2C(=O)OC[C@@H]2c2ccccc2)[C@@H]1/C=C/c1ccccc1 [Example 73C],~10 µM
18,O=C(CC[C@@H](C(=O)N1CCN(CCC2CCCCC2)CC1)N1C(=O)[C@@H](N2C(=O)OC[C@@H]2c2ccccc2)[C@H]1/C=C/c1ccccc1)NCc1cc(F)cc(C(F)(F)F)c1 [Example 73E],< 10 µM

# Same assay, conditions: displacement of 3H-CP55940 (1 nM) on CB1 receptors; read-out: IC50
row,IC50,Molecule
1,~10 µM,O=C(NC1CCCc2ccccc21)[C@H](CCC(=O)N1CCN(C2CCCCC2)CC1)N1C(=O)[C@@H](N2C(=O)OC[C@@H]2c2ccccc2)[C@H]1/C=C/c1cccc2ccsc12 (stereo partly drawn) [Example 72A]
2,~10 µM,O=C(N[C@@H]1CCCc2ccccc21)[C@H](CCC(=O)N1CCN(C2CCSCC2)CC1)N1C(=O)[C@@H](N2C(=O)OC[C@@H]2c2ccccc2)[C@H]1/C=C/c1ccccc1 [Example 73B]
3,~10 µM,O=C(CC[C@@H](C(=O)N1CCN(c2ccccc2)CC1)N1C(=O)[C@@H](N2C(=O)OC[C@@H]2c2ccccc2)[C@H]1/C=C/c1ccccc1)NCc1cc(F)cc(C(F)(F)F)c1 [Example 73D]
4,~10 µM,O=C(CC[C@@H](C(=O)N1CCN(c2ccccn2)CC1)N1C(=O)[C@@H](N2C(=O)OC[C@@H]2c2ccccc2)[C@H]1/C=C/c1ccccc1)NCc1cc(F)cc(C(F)(F)F)c1 [Example 73F]

row,Molecule,IC50
1,2(S)-(tert-Butoxycarbonylaminopropyl)-2-[3(S)-(4(S)-phenyloxazolidin-2-on-3-yl)-4(R)-(styr-2-yl)azetidin-2-on-1-yl]acetic acid N-(3-trifluoromethylbenzyl)amide [Example 20Q],< 10 µM
